Experimental data: patent publication US20080213341A1, “Butyric Acid Esters of Carbohydrates and Carbohydrate Polyols” (priority 2005, published 2008)
Like-named read-outs stand apart in the source and are kept apart here.

Assays:
[1] = oral administration / uptake via food; cited from earlier work
[2] = tested on: intestinal bacteria of the human large intestine; test: In vitro fermentation with intestinal bacteria of the human large intestine (feces suspension); format: in vitro ADME; details: for x-fold increase in the butyrate concentration in the fermentation medium in comparison to the nonesterified carbohydrate or carbohydrate polyol: in vitro fermentation; for butyrate release/formation (in words): in vitro fermentation with human intestinal bacteria; for increase of the butyrate in the fermentation broths: after a short fermentation time
Method: It was investigated in in vitro fermentation experiments with intestinal bacteria of the human large intestine whether butyric acid esters listed above are hydrolyzed and metabolized by bacteria of the large intestine or their enzymes and butyrate is released in the […]. The following medium was used for in vitro fermentation experiments: [table] 9 ml of the […] medium described above were treated with 0.5% (w/v) of the butyric acid ester to be tested and 0.2% (w/v) of taurocholic acid. This medium was subsequently inoculated with 1 ml of a 10% strength feces suspension (mixed feces of three subjects) in anaerobic 50 mmol/l phosphate buffer, pH 7.0, to which 0.5 g/l of cysteine/HCl had been added as a reductant. Hungate tubes were incubated at 37° C. with shaking for 72 h, samples were taken at different times and these were investigated for short-chain fatty acids, lactic acid and pH. The extent of the metabolization of the test substances was carried out by means of the determination of the release of butyrate.

[3] = tested on: colon cancer; details: orally administered; cited from earlier work
[4] = 0.5% (w/v) substrate, human feces suspension, 37° C., 72 h

| Compound | g of butyrate/g of substrate [2, 4] | x-fold increase in the butyrate concentration in the fermentation medium in comparison to the nonesterified carbohydrate or carbohydrate polyol ([2]; 72 h) | butyrate release/formation (in words) [2] | other results |
| --- | --- | --- | --- | --- |
| CCCC(=O)O [butyrate, butyric acid] | – | – | – | cleavage / absorption in the small intestine [1]: rapidly and completely absorbed in the small intestine |
| Pentabutyrylisomalt | 0.2 g of butyrate/g of substrate | 1.3 x-fold | – | – |
| Octabutyrylisomalt | 0.1 g of butyrate/g of substrate | 0.5 x-fold | – | g of butyrate/g of substrate ([2]; 0.5% (w/v) substrate, human feces suspension, 37° C., 72 h, listed as octabutyrylisomalt): about 0.1 g of butyrate/g of substrate |
| Tetrabutyryldiacetylsorbitol | – | – | – | g of butyrate/g of substrate [2]: 0.3 g of butyrate/g of substrate |
| Tributyrylxylitol | 0.6 g of butyrate/g of substrate | 2.2 x-fold | Large amounts of butyrate were also released | – |
| Tetrabutyrylsorbitol | 0.7 g of butyrate/g of substrate | 2.7 x-fold | high butyrate formation | increase of the butyrate in the fermentation broths [2]: strong increase; x-fold increase in the butyrate concentration in the fermentation medium in comparison to the nonesterified carbohydrate or carbohydrate polyol ([2]; 72 h, listed as tetrabutyrylsorbitol): more than twofold |
| Isomalt [reference compound] | 0.2 g of butyrate/g of substrate | – | – | g of butyrate/g of substrate ([2]; 0.5% (w/v) substrate, human feces suspension, 37° C., 72 h, listed as isomalt): approximately 0.2 g of butyrate/g of substrate |
| Heptabutyryldiacetylisomalt | 0.1 g of butyrate/g of substrate | 0.4 x-fold | – | g of butyrate/g of substrate ([2]; 0.5% (w/v) substrate, human feces suspension, 37° C., 72 h, listed as heptabutyryldiacetylisomalt): about 0.1 g of butyrate/g of substrate |
| Pentabutyrylxylitol | 0.4 g of butyrate/g of substrate | 1.5 x-fold | Large amounts of butyrate were also released | – |
| CCCC(=O)OCC(COC(=O)CCC)OC(=O)CCC [tributyrin] | – | – | – | cleavage / absorption in the small intestine [1]: rapidly cleaved in the anterior small intestine; activity in the prevention of colon cancer [3]: inactive |
| Tributyrylsorbitol | 0.7 g of butyrate/g of substrate | 2.8 x-fold | high butyrate formation | increase of the butyrate in the fermentation broths [2]: strong increase; x-fold increase in the butyrate concentration in the fermentation medium in comparison to the nonesterified carbohydrate or carbohydrate polyol ([2]; 72 h, listed as tributyrylsorbitol): more than twofold |
| Hexabutyrylsorbitol | 0.2 g of butyrate/g of substrate | 0.8 x-fold | – | – |
| Tetrabutyrylxylitol | 0.7 g of butyrate/g of substrate | 2.5 x-fold | high butyrate formation | x-fold increase in the butyrate concentration in the fermentation medium in comparison to the nonesterified carbohydrate or carbohydrate polyol ([2]; 72 h, listed as tetrabutyrylxylitol): more than two-fold |
